How the values were obtained:
[1] = system: PKCδ exon 9 5′ splice site II; experiment: pSPL3-PKCδ splicing minigene RT-PCR; type: cell-based, mouse; settings: 200 nM SEAM, 24 hours after minigene transfection, harvested on day 2
Source text: The pSPL3 vector was modified to remove cryptic 5′ splice sites as described in a previous publication (25). The pSPL3 vector was digested with BamHI (in the MCS) and NheI. Primers to amplify genomic PKCδ from 3T3L1 cells flanked mouse PKCδ exon 9 and were designed to include the BclI site in the forward primer (in bold type) and BcuI site in the reverse primers (in bold type). The forward primer was designed to amplify 137 bp of 3′ intronic sequence such that the product contained the branch point and 3′ splice site and the reverse primer included 284 bp 5′ intronic sequence and included the 5′ splice site II of exon 9. The primers were: forward primer 5′ […] 3′ (SEQ ID NO:6); reverse primer 5′ […] 3′ (SEQ ID NO:7). The product was verified by sequencing and ligated into the digested pSPL3 vector. The overhangs of the selected restriction enzymes can hybridize and this enabled cloning of the PCR product in the proper orientation. The resulting pSPL3-PKCδ minigene was verified by restriction digestion and sequencing.
Splicing minigenes are advantageous to study alternative splicing events without influence from endogenous factors. […] Utilization of 5′ splice site I on exon 9 gave rise to PKCδI while utilization of downstream 5′ splice site II gave rise to PKCδII. After 24 hours, the cells were treated with 200 nM SEAM. […]

PKCδII [2] = experiment: RT-PCR of PKCδII splicing/mRNA in differentiating 3T3L1 preadipocytes; type: cell-based, mouse
Procedure: (§1) Mouse 3T3-L1 preadipocytes were purchased from ZenBio™ (Research Triangle Park, N.C., USA) and passaged as preconfluent cultures in DMEM high glucose (Invitrogen, Carlsbad, Calif.) with 10% newborn calf serum (Sigma-Aldrich, St. Louis, Mo.) at 37° C. and 10% CO2. Once confluent, cells were differentiated (day 0) in DMEM high glucose with 10% fetal bovine serum (Atlas Biological, Fort Collins, Colo.), 10 μg/mL bovine insulin (Sigma), […] dexamethasone (Sigma), and 0.5 mM isobutyl-1-methylxanthine (Sigma). On day 2, media was replaced with DMEM high glucose, 10% FBS, and bovine insulin. Day 4 and afterwards, cells were cultured in DMEM high glucose plus 10% FBS.
Total RNA was isolated from 3T3L1 cells with RNA-Bee (Tel Test Center) as recommended by the manufacturer. RNA was also obtained from adipose tissues of mice fed with or without resveratrol. 2 μg RNA was used to synthesize first-strand cDNA with an Oligo(dT) primer and Omniscript R kit (Qiagen). The following primers were used in PCR: PKCδ forward primer 5′ […] 3′ (SEQ ID NO:1); reverse primer 5′ […] 3′ (SEQ ID NO:2). These primers amplified PKCδI and PKCδII simultaneously. […] Following PCR, 5% of products were resolved on 6% PAGE gels and detected by silver staining. The PCR reaction was optimized for linear range amplification to allow for quantification of products. […]

3T3L1 adipocytes [3] = experiment: Apoptosis assay, Annexin V-PI staining by flow cytometry; type: cell-based, mouse
Procedure: as §1
3T3L1 preadipocytes were cultured on 60 mm dishes as described above. For apoptosis assays, cells were serum-starved for 48 hours. Media were collected and cells were washed one time with HBSS and then trypsinized for 5.0 minutes. Five ml complete media was added to neutralize the trypsin. Media and washes were pooled and centrifuged at 1200 RPMS for five minutes. […] 400 μl binding buffer was added and cells were analyzed by flow cytometry within one hour Annexin V-FITC and PI fluorescence, which stains apoptotic cells, were measured using an Accuri C6 flow cytometer.

Bcl2 = experiment: Western blot of Bcl2 in 3T3L1 cells; type: cell-based, mouse; settings: SEAM treatment (200 nM)
Procedure: as §1
(§2) Protein lysates were obtained from 3T3L1 cells using lysis buffer containing proteases. Protein lysates (40 μg) were separated by SDS-PAGE with 10% gels. Proteins were electrophoretically transferred to nitrocellulose membranes, blocked with Tris-buffered saline containing 0.1% Tween 20 and 5% nonfat dried milk, washed, and incubated with a polyclonal anti-PARP (Upstate Biotechnology), anti-XIAP (AnaSpec), anti-Bcl2, anti-caspase 9 (Calbiochem), anti-Bcl-x (Santa Cruz Biotechnology), and anti-PKCδ (Cell Signaling) or antibody against the hinge-region of PKCδII (Patel lab (19)). […] Data was analyzed using AlphaView® software.

PPARγ = experiment: Western blot of PPARγ (adipogenesis marker) in differentiating 3T3L1 cells; type: cell-based, mouse
Procedure: as §1
(§3) Protein lysates were obtained from 3T3L1 cells using lysis buffer containing proteases. Protein lysates (40 μg) were separated by SDS-PAGE with 10% gels. Proteins were electrophoretically transferred to nitrocellulose membranes, blocked with Tris-buffered saline containing 0.1% Tween 20 and 5% nonfat dried milk, washed, and incubated with a polyclonal anti-PARP (Upstate Biotechnology), anti-XIAP (AnaSpec), anti-Bcl2, anti-caspase 9 (Calbiochem), anti-Bcl-x (Santa Cruz Biotechnology), and anti-PKCδ (Cell Signaling) or antibody against the hinge-region of PKCδII (Patel lab (19)). This antibody is specific for PKCδII, as it recognizes the extended hinge region, which is absent in PKCδI (24). Other antibodies used are as follows: PPARγ, Akt, pAkt 473, TNFα, Adiponectin, p-BAD (S316), p-PTEN (Cell Signaling, Boston, Mass.), β-actin A5441 (Sigma). After incubation with anti-rabbit IgG-HRP, enhanced chemiluminescence (Pierce) was used for detection. FluorChem M™ (Protein Simple) imaging system was used to capture digital chemiluminescence images and process western blots. Data was analyzed using AlphaView® software.

PKCδI [4] = experiment: Western blot of PKCδI expression in differentiating 3T3L1 cells; type: cell-based, mouse
Procedure: as §1, §3

adiponectin = experiment: Western blot of adiponectin in 3T3L1 cells; type: cell-based, mouse; settings: SEAM treatment, days 4 and 8
Procedure: as §1, §2

[5] = system: cPKCs: α, βI, βII, γ; nPKCs: η, ε, θ; aPKCs: ζ, λ; experiment: Immunoblotting for other PKC family isoforms (specificity); type: cell-based, mouse; settings: SEAM treatment (200 nM)
Procedure: as §1
Protein lysates were obtained from 3T3L1 cells using lysis buffer containing proteases. Protein lysates (40 μg) were separated by SDS-PAGE with 10% gels. […] Data was analyzed using AlphaView® software.
3-hydroxystilbene was modified by Mannich coupling to add bis-diethylaminomethyl group (described in Example 1). Several synthetic stilbenoids with structural modifications to the basic resveratrol structure were evaluated. […]

3T3L1 cells = experiment: Cytotoxicity assay / cell viability; type: cell-based, mouse; settings: 200 nM SEAM in 3T3L1 cells
Procedure: WST-1 (Roche Molecular Biochemicals, IN) was added to 3T3L1 cells (in triplicate) that are treated without or with SEAM to a final concentration of 10% (vol/vol). Cells were incubated for 2 hours at 37° C. The formazon dye produced by viable cells was quantified using a spectrophotometer set at a wavelength of 440 nm and absorbance recorded for each well (reference wavelength, 690 nm).
Immunoblotting for PPARγ and adiponectin was also performed to determine whether SEAM affected differentiation of 3T3L1 cells. […] Total apoptosis was measured by flow cytometry using Annexin V-PI staining (FIG. 8d). To determine whether SEAM was toxic to cells, cell viability was evaluated upon treatment of 200 nM SEAM in 3T3L1 cells. Cytotoxicity was measured using the […] assay. This assay measures the reducing potential of the cell using a colorimetric reaction. Viable cells reduce the […] to a colored formazan product.

Bcl-xL = experiment: Western blot of Bcl-xL in 3T3L1 cells; type: cell-based, mouse; settings: SEAM treatment (200 nM)
Procedure: as §1, §2

TNFα = settings: mice, 400 mg resveratrol; earlier studies (23); cited from earlier work
3T3L1 preadipocytes = experiment: Resveratrol dose finding in differentiating 3T3L1 preadipocytes; type: cell-based, mouse; settings: doses 10 to 100 μM tested, data not shown
Procedure: as §1
Several studies have shown its role in inhibiting adipose cell proliferation, lipid accumulation and stimulation of apoptosis and lipolysis in mature adipocytes. Further, resveratrol is shown to modulate alternative splicing of genes (29). However, its mechanisms of action and target proteins in apoptotic pathways during adipogenesis was not determined. […] Resveratrol treatment administered on day 5 (mature adipcoyte) inhibited PKCδII expression levels by 65% on day 6 and by more than 90% on day 8 (FIG. 7I a, b, c). Simultaneously, up to a 50% increase in PKCδI levels was observed on days 6 and 8.

3T3L1 adipocytes [6] = experiment: Oil Red O staining for lipid accumulation; type: cell-based, mouse; settings: 25 μM on day 4, Oil Red O staining on day 8
Procedure: as §1
3T3L1 preadipocytes were washed with PBS and fixed with 10% formalin for 30 minutes. The cells were then rinsed and incubated with 60% isopropanol for 5 minutes. Oil Red O stain (0.15%, Sigma) was added and incubated for 10 minutes. Images were captured with Nixon confocal microscope.

PKCδII [7] = experiment: PCR of PKCδII in adipose tissue of mice fed resveratrol; type: in vivo, mouse; settings: 400 mg resveratrol per kg body weight in diet, once daily
Procedure: (§4) Total RNA was obtained from mouse adipose tissues from Dr. You (University of South Florida). 8-week old male C57BL/6J (Jackson labs) were either fed a chow diet (control) or diet with added 400 mg resveratrol per kg body weight, once daily 23); n=5. Total RNA was extracted from adipose tissues from these mice. All protocols were reviewed and approved by the Institutional Animal Care and Use Committee at University of South Florida, Division of Comparative Medicine.
(§5) Total RNA was isolated from 3T3L1 cells with RNA-Bee (Tel Test Center) as recommended by the manufacturer. RNA was also obtained from adipose tissues of mice fed with or without resveratrol. 2 μg RNA was used to synthesize first-strand cDNA with an Oligo(dT) primer and Omniscript R kit (Qiagen). The following primers were used in PCR: PKCδ forward primer 5′ […] 3′ (SEQ ID NO:1); reverse primer 5′ […] 3′ (SEQ ID NO:2). These primers amplified PKCδI and PKCδII simultaneously. PKCδII-specific antisense primer (5′ […]3′) (SEQ ID NO:3). β-actin forward primer 5′ […] 3′ (SEQ ID NO:4); reverse primer 5′ […] 3′ (SEQ ID NO:5). Following PCR, 5% of products were resolved on 6% PAGE gels and detected by silver staining. The PCR reaction was optimized for linear range amplification to allow for quantification of products. Densitometric analyses of the bands were done using the Un-Scan IT™ Analysis Software (Silk Scientific).

PKCδII [8] = experiment: Western blot of PKCδII expression in differentiating 3T3L1 cells; type: cell-based, mouse; settings: for inhibition of PKCδII expression levels: 25 μM administered on day 5 (mature adipocyte)
Procedure: as §1, §3

SIRT1 = settings: mice, 400 mg resveratrol; earlier studies (23); cited from earlier work
PKCδI [9] = experiment: PCR of PKCδI in adipose tissue of mice fed resveratrol; type: in vivo, mouse; settings: 400 mg resveratrol per kg body weight in diet, once daily
Procedure: as §4, §5

With `CCN(CC)Cc1ccc(/C(C)=C(\C)c2ccc(CN(CC)CC)c(O)c2)cc1O` [SEAM] the “utilization of 5′ splice site II” value [1] was “inhibited”, the “inhibition of PKCδII splicing” value (PKCδII [2]; 100 nM, data not shown) was 60% and the “decrease of PKCδII compared to control cells” value (PKCδII [2]; 200 nM) was 80%. For the same compound, the apoptosis levels (3T3L1 adipocytes [3]; 200 nM SEAM, Annexin V-PI staining) was “increased compared to control”, the “decrease of Bcl2 levels” value (Bcl2) was 40% and the “decrease of PPARγ2 compared to control” value (PPARγ; SEAM treatment, days 4 and 8) was 5%. For the same compound, the PKCδI expression (PKCδI [4]; 100 nM, data not shown) was “not affected”, the PKCδI levels (PKCδI [4]; SEAM treatment (200 nM)) was “did not affect” and the “decrease of adiponectin compared to control” value (adiponectin) was 20%. For the same compound, the “expression levels of other PKC isoforms” value [5] was “did not affect”, the cell viability (3T3L1 cells) was “viable” and the “decrease of BclxL levels” value (Bcl-xL) was 20%.

For `Oc1ccc(C=Cc2cc(O)cc(O)c2)cc1` [resveratrol, 3,5,4′-trihydroxystilbene], the “TNFα levels in adipose tissue” value (TNFα) is given as “decreased”, the “effect on the cells” value (3T3L1 preadipocytes; 100 μM resveratrol) is given as “detrimental to the cells” and the optimal dose (3T3L1 preadipocytes) is given as 25 µM. The adipocytes undergoing apoptosis (3T3L1 adipocytes [3]; 25 μM on day 2, collected on day 8) was 70%, the “decline in lipid accumulation compared to control” value (3T3L1 adipocytes [6]) was “greater than 75%” and the PPARγ2 levels (PPARγ; 25 μM resveratrol, day 8) was “inhibition of PPARγ2 levels”. The “decline of PPARγ1 levels” value (PPARγ; 25 μM resveratrol, day 8) was 30%, the “increase in PKCδI levels” value (PKCδI [4]; 25 μM resveratrol, days 6 and 8) was at most 50% and the “decrease in PKCδII expression in adipose tissue” value (PKCδII [7]) was 70%. For the same compound, the “decrease in PKCδII expression” value (PKCδII [8]; 25 μM administered on day 0 (preadipocyte)) was “less than 10%”, the “inhibition of PKCδII expression levels” value (PKCδII [8]; read on day 6) was 65% and the “inhibition of PKCδII expression levels” value (PKCδII [8]; read on day 8) was “more than 90%”. The “SIRT1 levels in adipose tissue” value (SIRT1) was “increased” and the “increase in PKCδI expression in adipose tissue” value (PKCδI [9]) was 25%.

— US9458086B1, “Compositions and methods for adipocyte modulation” (University of South Florida (A Florida Non-Profit …, priority 2013, dated 2016)
